Entries after “also recorded” stand apart in the source; their conditions may differ.
Legend:
PDCD4 in AGS cells = test: Western blot of PDCD4 in AGS cells; type: cell-based, human; settings: 48 hours of incubation, relative to DMSO control, normalized to β-actin
Description: Data in FIG. 16B are reported as enhancement of PDCD4 levels, relative to DMSO control (no compound added).
Western blot analysis. Western blot analysis was conducted according to standard protocols. Briefly, proteins were collected from cells and lysed and the Bradford assay was used to measure protein concentrations. Quantification of protein expression was conducted using the image analysis software ImageJ.

[1] = test system: mature miR-21 in HeLa cells; test: qRT-PCR of mature miR-21 in HeLa cells; type: cell-based; settings: for decline in levels of mature miR-21: days 4 and 5 of incubation, normalized to no compound; for reduction of all newly synthesized miR-21: worked out from the 20% decrease and miR-21 lifetime of approximately 5 days
Description: FIGS. 12A and 12B compare levels of mature miR-21 in HeLa cells, as measured by standard qRT-PCR after 5 days of incubation in the presence of palbociclib and compounds −0045 (sm1), −0050 (sm3) and −0052 (sm5) (FIG. 12A); and levels of mature miR-21 in HeLa cells were measured by qRT-PCR after 4 days of incubation in the presence of palbociclib (a control) and compounds −0045 (sm1), −0050 (sm3) and −0052 (sm5) (FIG. 12B), normalized to miR-21 levels in the absence of any compound. […] The two panels represent independent duplicates of the same experiment.
HeLa cells have relatively high levels of miR-21, and this cell line was used to evaluate whether addition of the molecules would decrease levels of mature miR-21, as expected for inhibition of miR-21 processing. […] In contrast, compounds −0045, −50 and −52, induce an approximately 20% percent decline in levels of mature miR-21 (FIGS. 12A and 12B; the comparison of FIG. 12A and FIG. 12B provides an indication in the uncertainty of the data). miR-21 is very long lived, with a lifetime of approximately 5 days. […] Similar results were obtained at higher numbers of cells/plate (200 k vs at the start of the experiment), but the experiment could not be extended beyond 2 days because of the very high cell density reached. The observed trends were nonetheless in agreement with the experiments conducted at lower cell density.

pre-miR-21 = test: 1D 1H imino NMR / NOESY titration of pre-miR-21 with compound; type: binding, human; settings: for closing of the apical loop of pre-miR-21 (new imino signals / base pairs): 1 mM pre-miR-21 titrated to 1.5 mM compound, 800 MHz, 5° C., 50 mM deuterated Tris pH 6.5, 50 mM NaCl; for binding to pre-miR-21 (NMR data): FIGS. 7A-7D
Description: All data were collected at 800 Mhz and at 5° C. in buffer containing 50 mM deuterated Tris at pH 6.5 and 50 mM NaCl.
Remarkably, the compounds have the unique capacity to ‘close the loop’ of pre-miR-21. This large change in RNA structure is shown in FIGS. 7A-7D, compared to the unbound RNA which are shown at the bottom of FIGS. 7A and 7C. […] The effect is very similar to what is observed with mutations that stabilize the loop structure by inducing stable formations of base pairs in place of unstable base pairs, and that also reduce miR-21 expression in both biochemical experiments and in cells, as reported in the literature. Accordingly, the compounds of formula (I) are specific pre-miR-21 binding compounds with the capacity to inhibit enzymatic processing of this oncogenic miRNA sequence.
RNA Transcription. All RNAs for ligand screening and structural or biochemical work were prepared in house using in vitro transcription on a large scale (typically 10 mL). RNA transcription and purification protocols used purified DNA oligonucleotide templates (IDT) and T7 RNA polymerase. Briefly, 1 mL of 8 μM TOP DNA (5′-CTATAGTGAGTCGTATTA-3′ (SEQ ID NO: 1)), corresponding to the phage T7 RNA polymerase promoter region, was annealed to 80 μL of 100 μM template sequences with 13 mM MgCl2, heated to 95° C. for […] then allowed to anneal to room temperature over 20 min. The annealing mixture was incubated with 5 mM of each of the four NTPs (ATP, GTP, UTP and CTP, from Sigma), transcription buffer, 8% PEG-8000 and 35 mM magnesium chloride with 0.4 mg/mL T7 RNA polymerase expressed and purified using established methods. All RNA samples are purified from crude transcriptions by 20% denaturing polyacrylamide gel electrophoresis (PAGE), electroeluted and concentrated by ethanol precipitation. The samples are re-dissolved in 12 mL of high salt wash (700 mM NaCl, 200 mM KCl, in 10 mM potassium phosphate at pH 6.5, with 10 μM EDTA to chelate any divalent ions), concentrated using Centriprep conical concentrators ([…] MWC, Millipore). The RNA was then slowly exchanged into low salt storage buffer (10 mM potassium phosphate at pH 6.5, with 10 mM NaCl and 10 μM EDTA). Prior to NMR experiments, all RNA samples were finally desalted using NAP-10 gravity columns, lyophilized and re-dissolved in ‘screening buffer’ or ‘structure buffer’ (see below), then annealed by heating for 4 min to 90° C. and snap cooling at −20° C.

Structure (SMILES) | levels of PDCD4 (Western blot) (PDCD4 in AGS cells; listed as −0045) | decline in levels of mature miR-21 [1] | reduction of all newly synthesized miR-21 [1] | closing of the apical loop of pre-miR-21 (new imino signals / base pairs) (pre-miR-21) | binding to pre-miR-21 (NMR data) (pre-miR-21) | levels of PDCD4 (Western blot) (PDCD4 in AGS cells; listed as −0052)
O=c1[nH]c(Nc2ccc(N3CCNCC3)cn2)nc2cccnc12 [Compound 25] | an increase was observed; also recorded: increase levels of PDCD4 | approximately 20% | about 60% | formation of the putative tandem UG/GU wobble pair in the apical loop; also recorded: emergence of new imino NH chemical shift resonances for the apical loop portion | bind to pre-miR-21 strongly | –
O=c1[nH]c(Nc2ccc(N3CCNCC3)cn2)nc2cnccc12 [Compound 30] | – | approximately 20% | about 60% | emergence of new imino NH chemical shift resonances for the apical loop portion | bind to pre-miR-21 strongly | an increase was observed; also recorded: increase levels of PDCD4

— patent US20230416247A1, “DRUG-LIKE MOLECULES AND METHODS FOR THE THERAPEUTIC TARGETING OF MICRORNA-21” (University of Washington, priority 2020, published 2023)
